Test results reported in US20060128662A1, “Novel compounds for treatment of obesity” (Novo Nordisk A/S, priority 2003, published 2006).

system: FSK-4 cells; assay: Assay (I): Glucose utilisation in a human epithelia cell line (FSK4 cells), D-(6-3H(N))-glucose; format: cell-based; conditions: 24 hours incubation, Hill equation, read-out: GlucosFSK4 EC50
Procedure: Assay (I): Glucose Utilisation in a Human Epithelia Cell Line (FSK4 cells)
The ^3H-proton will first be released in the TCA cyclus and transported to the respiratory chain where it will be incorporated into water. The water is thereafter separated from the D-(6-^3H(N))-glucose by evaporation.
FSK-4 cells obtained from ATCC (Maryland, USA), are cultured in growth medium (McCoy's medium with the following addition 100 units/ml penicillin and streptomycin and 10% FCS (fetal calf serum)) at 37° C. and 5% CO2.
The cells are then incubated for another 24 hours at 37° C. and 5% CO2.
The half maximal concentration (EC50) and maximal efficacy (Emax) are calculated using the Hill equation in GraphPad Prism 3.0 (GraphPad software, Inc.). […] From the percentage increase in glucose utilisation the linear slope is calculated using the Michaelis-Menten equation.

Going from `CC(C)(C)c1cc(/C=C(\C#N)S(=O)(=O)c2ccccn2)cc(C(C)(C)C)c1O` [Example 3, (E)-3-(3,5-Di-tert!-butyl-4-hydroxy-phenyl)-2-(pyridine-2-sulfonyl)-acrylonitrile] to `CC(C)(C)c1cc(/C=C(\C#N)S(=O)(=O)c2ccc(Cl)cn2)cc(C(C)(C)C)c1O` [Example 41, 2-(5-Chloro-pyridine-2-sulfonyl)-3-(3,5-di-tert-butyl-4-hydroxy-phenyl)-acrylonitrile], the EC50 falls from 9000 nM to 900 nM (10-fold). The second is the more potent here.

First: N#C/C(=C\c1ccc(O)c([N+](=O)[O-])c1)S(=O)(=O)c1ccc(Cl)cc1 [Example 4, (E)-2-(4-Chloro-benzenesulfonyl)-3-(4-hydroxy-3-nitro-phenyl)-acrylonitrile]
Second: CC(C)(C)c1cc(/C=C(\C#N)S(=O)(=O)c2ccc(Cl)cc2)cc([N+](=O)[O-])c1O [Example 12, (E)-3-(3-tert-Butyl-4-hydroxy-5-nitro-phenyl)-2-(4-chloro-benzenesulfonyl)-acrylonitrile]
The EC50 of the first is higher: > 10000 nM for the first, 6000 nM for the second.

Compared with `Cn1ccnc1S(=O)(=O)/C(C#N)=C/c1cc(C(C)(C)C)c(O)c(C(C)(C)C)c1` [Example 6, (E)-3-(3,5-Di-tert-butyl-4-hydroxy-phenyl)-2-(1-methyl-1H-imidazole-2-sulfonyl)-acrylonitrile], `CC(C)(C)c1cc(/C=C(\C#N)S(=O)(=O)c2cccs2)cc(C(C)(C)C)c1O` [Example 23, (E)-3-(3,5-Di-tert-butyl-4-hydroxy-phenyl)-2-(thiophene-2-sulfonyl)-acrylonitrile] is 7-fold lower in EC50: 8400 nM for the first, 1200 nM for the second.

First: C/C(=C(/C#N)S(=O)(=O)c1ccc(Cl)cc1)c1cc(C(C)(C)C)c(O)c(C(C)(C)C)c1 [Example 7, (E/Z)-2-(4-Chloro-benzenesulfonyl)-3-(3,5-di-tert-butyl-4-hydroxy-phenyl)-but-2-enenitrile]
Second: Cc1ccc(S(=O)(=O)/C(C#N)=C/c2cc(C(C)(C)C)c(O)c(C(C)(C)C)c2)cc1 [Example 33, 3-(3,5-Di-tert-butyl-4-hydroxy-phenyl)-2-(toluene-4-sulfonyl)-acrylonitrile]
The EC50 of the first is 9.1-fold higher: 10000 nM for the first, 1100 nM for the second.

Compared with `CC(C)(C)c1cc(/C=C(\C#N)S(=O)(=O)c2ccc([N+](=O)[O-])cc2)cc(C(C)(C)C)c1O` [Example 9, (E)-3-(3,5-Di-tert-butyl-4-hydroxy-phenyl)-2-(4-nitro-benzenesulfonyl)-acrylonitrile], `CC(C)(C)c1cc(/C=C(\C#N)S(=O)(=O)c2ccc(N)cc2)cc(C(C)(C)C)c1O` [Example 20, (E)-2-(4-Amino-benzenesulfonyl)-3-(3,5-di-tert-butyl-4-hydroxy-phenyl)-acrylonitrile] is 2-fold higher in EC50: 1400 nM for the first, 2800 nM for the second. The first is the more potent here.

First: CC(C)(C)c1cc(/C=C(\C#N)S(=O)(=O)c2ccc(OC(F)(F)F)cc2)cc(C(C)(C)C)c1O [Example 11, (E)-3-(3,5-Di-tert-butyl-4-hydroxy-phenyl)-2-(4-trifluoromethoxy-benzenesulfonyl)-acrylonitrile]
Second: CC(C)(C)c1cc(/C=C(\C#N)S(=O)(=O)c2cccc(OC(F)(F)F)c2)cc(C(C)(C)C)c1O [Example 39, 3-(3,5-Di-tert-butyl-4-hydroxy-phenyl)-2-(3-trifluoromethoxy-benzenesulfonyl)-acrylonitrile]
The EC50 of the first is 4.4-fold higher: 2200 nM for the first, 500 nM for the second.

`COCCN(CCOC)C(=O)c1ccc(S(=O)(=O)/C(C#N)=C/c2cc(C(C)(C)C)c(O)c(C(C)(C)C)c2)cc1` [Example 13] and `CC(C)(C)c1cc(/C=C(\C#N)S(=O)(=O)c2ccc(C(=O)N(CCO)CCO)cc2)cc(C(C)(C)C)c1O` [Example 26] are within 1.5-fold of each other in EC50: 4000 nM for the first, 3700 nM for the second.

Going from `CN(C)C(=O)c1ccc(S(=O)(=O)/C(C#N)=C/c2cc(C(C)(C)C)c(O)c(C(C)(C)C)c2)cc1` [Example 14] to `CC(O)CN(CC(C)O)C(=O)c1ccc(S(=O)(=O)/C(C#N)=C/c2cc(C(C)(C)C)c(O)c(C(C)(C)C)c2)cc1` (stereo not shown) [Example 15], the EC50 rises from 2300 nM to 10000 nM (4.3-fold).

First: CN1CCN(C(=O)c2ccc(S(=O)(=O)/C(C#N)=C/c3cc(C(C)(C)C)c(O)c(C(C)(C)C)c3)cc2)CC1 [Example 16, (E)-3-(3,5-Di-tert-butyl-4-hydroxy-phenyl)-2-[4-(4-methyl-piperazine-1-carbonyl)-benzenesulfonyl]-acrylonitrile]
Second: CC(C)(C)c1cc(/C=C(\C#N)S(=O)(=O)c2ccc(C(=O)N3CCOCC3)cc2)cc(C(C)(C)C)c1O [Example 19, (E)-3-(3,5-Di-tert-butyl-4-hydroxy-phenyl)-2-[4-(morpholine-4-carbonyl)-benzenesulfonyl]-acrylonitrile]
The EC50 of the first is 1.6-fold lower: 3200 nM for the first, 5100 nM for the second. The first is the more potent here.

Going from `CC(C)(C)c1cc(/C=C(\C#N)S(=O)(=O)c2ccc(C(=O)NCCO)cc2)cc(C(C)(C)C)c1O` [Example 17] to `COc1ccc(S(=O)(=O)/C(C#N)=C/c2cc(C(C)(C)C)c(O)c(C(C)(C)C)c2)cc1` [Example 46, 3-(3,5-Di-tert-butyl-4-hydroxy-phenyl)-2-(4-methoxy-benzenesulfonyl)-acrylonitrile], the EC50 falls from 7400 nM to 1000 nM (7.4-fold).

First: CC1CN(C(=O)c2ccc(S(=O)(=O)/C(C#N)=C/c3cc(C(C)(C)C)c(O)c(C(C)(C)C)c3)cc2)CC(C)O1 (stereo not shown) [Example 18, (E)-3-(3,5-Di-tert-butyl-4-hydroxy-phenyl)-2-[4-(2,6-dimethyl-morpholine-4-carbonyl)-benzenesulfonyl]-acrylonitrile]
Second: CC1COCC(C)N1C(=O)c1ccc(S(=O)(=O)/C(C#N)=C/c2cc(C(C)(C)C)c(O)c(C(C)(C)C)c2)cc1 (stereo not shown) [Example 27, 3-(3,5-Di-tert-butyl-4-hydroxy-phenyl)-2-[4-(3,5-dimethyl-morpholine-4-carbonyl)-benzenesulfonyl]-acrylonitrile]
The EC50 of the first is 2.1-fold lower: 1700 nM for the first, 3500 nM for the second.

Compared with `CC(C)(C)c1cc(/C=C(\C#N)S(=O)(=O)/C(C#N)=C/c2cc(C(C)(C)C)c(O)c(C(C)(C)C)c2)cc(C(C)(C)C)c1O` [Example 22], `CC(C)(C)c1cc(C=C(C#N)S(=O)(=O)c2cc(C(C)(C)C)c(O)c(C(C)(C)C)c2)cc(C(C)(C)C)c1O` [Example 35, 2-(3,5-Di-tert-butyl-4-hydroxy-benzenesulfonyl)-3-(3,5-di-tert-butyl-4-hydroxy-phenyl)-acrylonitrile] is 8.2-fold higher in EC50: 400 nM for the first, 3300 nM for the second.

First: CC(C)(C)c1cc(/C=C(\C#N)S(=O)(=O)Cc2ccc(Cl)cc2)cc(C(C)(C)C)c1O [Example 24, (E)-2-(4-Chloro-phenylmethanesulfonyl)-3-(3,5-di-tert-butyl-4-hydroxy-phenyl)-acrylonitrile]
Second: CC(C)(C)c1cc(/C=C(\C#N)S(=O)(=O)Cc2ccco2)cc(C(C)(C)C)c1O [Example 31, 3-(3,5-Di-tert-butyl-4-hydroxy-phenyl)-2-(furan-2-ylmethanesulfonyl)-acrylonitrile]
The EC50 of the first is 2.9-fold lower: 700 nM for the first, 2000 nM for the second. The first is the more potent here.

`CC(C)(C)c1ccc(S(=O)(=O)/C(C#N)=C/c2cc(C(C)(C)C)c(O)c(C(C)(C)C)c2)cc1` [Example 29, 2-(4-tert-Butyl-benzenesulfonyl)-3-(3,5-di-tert-butyl-4-hydroxy-phenyl)-acrylonitrile] and `CC(C)c1ccc(S(=O)(=O)/C(C#N)=C/c2cc(C(C)(C)C)c(O)c(C(C)(C)C)c2)cc1` [Example 34, 3-(3,5-Di-tert-butyl-4-hydroxy-phenyl)-2-(4-isopropyl-benzenesulfonyl)-acrylonitrile] are within 1.5-fold of each other in EC50: 2900 nM for the first, 2300 nM for the second.

First: CC(C)(C)c1cc(/C=C(\C#N)S(=O)(=O)c2cccc3ccccc23)cc(C(C)(C)C)c1O [Example 30, 3-(3,5-Di-tert-butyl-4-hydroxy-phenyl)-2-(naphthalene-1-sulfonyl)-acrylonitrile]
Second: CC(C)(C)c1cc(/C=C(\C#N)S(=O)(=O)c2ccccc2C(=O)O)cc(C(C)(C)C)c1O [Example 42]
The EC50 of the first is 9-fold lower: 1000 nM for the first, 9000 nM for the second.

`CC(C)(C)c1cc(/C=C(\C#N)S(=O)(=O)c2ccc(S(C)(=O)=O)cc2)cc(C(C)(C)C)c1O` [Example 38, 3-(3,5-Di-tert-butyl-4-hydroxy-phenyl)-2-(4-methanesulfonyl-benzenesulfonyl)-acrylonitrile] and `COc1cccc(S(=O)(=O)/C(C#N)=C/c2cc(C(C)(C)C)c(O)c(C(C)(C)C)c2)c1` [Example 47, 3-(3,5-Di-tert-butyl-4-hydroxy-phenyl)-2-(3-methoxy-benzenesulfonyl)-acrylonitrile] are within 1.5-fold of each other in EC50: 700 nM for the first, 800 nM for the second.

Compared with `CC(C)(C)c1cc(/C=C(\C#N)S(=O)(=O)c2ccccc2OC(F)(F)F)cc(C(C)(C)C)c1O` [Example 40, 3-(3,5-Di-tert-butyl-4-hydroxy-phenyl)-2-(2-trifluoromethoxy-benzenesulfonyl)-acrylonitrile], `CC(C)(C)c1cc(/C=C(\C#N)S(=O)(=O)c2ccccc2C(=O)N2CCOCC2)cc(C(C)(C)C)c1O` [Example 44, 3-(3,5-Di-tert-butyl-4-hydroxy-phenyl)-2-[2-(morpholine-4-carbonyl)-benzenesulfonyl]-acrylonitrile] is 5-fold higher in EC50: 600 nM for the first, 3000 nM for the second.

Compared with `CC(C)(C)c1cc(/C=C(\C#N)S(=O)(=O)c2cccc(C(=O)N3CCOCC3)c2)cc(C(C)(C)C)c1O` [Example 45, 3-(3,5-Di-tert-butyl-4-hydroxy-phenyl)-2-[3-(morpholine-4-carbonyl)-benzenesulfonyl]-acrylonitrile], `COc1ccc(S(=O)(=O)/C(C#N)=C/c2cc(C(C)(C)C)c(O)c(C(C)(C)C)c2)cc1OC` [Example 48, 3-(3,5-Di-tert-butyl-4-hydroxy-phenyl)-2-(3,4-dimethoxy-benzenesulfonyl)-acrylonitrile] is 2-fold lower in EC50: 3000 nM for the first, 1500 nM for the second.

Work on `CC(C)(C)c1cc(/C=C(\C#N)S(=O)(=O)c2ccc(C3CC=CO3)cc2)cc(C(C)(C)C)c1O` (stereo not shown) [Example 49, 3-(3,5-Di-tert-butyl-4-hydroxy-phenyl)-2-[4-(2,3-dihydro-furan-2-yl)-benzenesulfonyl]-acrylonitrile] yielded an EC50 of 2200 nM.
